Series [1] addresses T1, human serum albumin (Homo sapiens, UniProt P02768).
T1 construct: For assays containing albumin from human serum; purchased MilliporeSigma A3782; host or cells: human serum
The series can be described thus: Ligand affinity for albumin by albumin-shift cAMP assays (Schild regression). The following applies: at 640 μM albumin, calculated from KA. The series is classed as in vitro ADME. How it is done:
Clonal HEK293 cells stably expressing either untagged human GIPR or human GLP-1R at various levels of receptor density were used for measurement of cAMP accumulation using the Gs Dynamic Assay and homogenous time-resolved fluorescence (62AM4PEJ, PerkinElmer). Corning 3570 white microtiter plates were used to collect 10 μL assay medium (DMEM, 31053, [Thermo Fisher Scientific], 2 mM Glutamax [35050, Thermo Fisher Scientific], 20 mM HEPES, 0.1% w/v bovine casein [4765, MilliporeSigma], and 250 μM isobutylmethylxanthine [IBMX] phosphodiesterase inhibitor) from a Multidrop Combi dispenser (Thermo Fisher Scientific). […] Vials of assay-ready cells were rapidly thawed from cryopreservation on the day of the assay. […] Time-resolved fluorescence was quantitated with a Pherastar FSX multilabel reader (BMG Labtech). Fluorescence data were analyzed by the ratio method, calibrated to external standards in a parallel processed plate, and reported as percent activation compared with vehicle minimum and native peptide maximum control wells. […]
Methods to quantify and predict the effect of albumin binding on biological activity in enzyme assays, receptor binding assays, and cell-based assays exist, but they are not currently widely employed ([57]–[59]). The general approach involves performing a bioassay in an albumin-free system and quantifying the effect of systematic titrations of albumin into the system. […]

For series [2] the following is noted: steady state plasma total concentration, cited from earlier work.
Series [3] addresses T2, GLP-1R (Homo sapiens, UniProt P43220). The series can be described thus: ARRB2 recruitment, CHO-K1 PathHunter enzyme fragment complementation. The series is classed as cell-based.
Description: ARRB2 recruitment to human GIPR and GLP-1R was quantified in CHO-K1 PathHunter cells expressing C-terminally fused ProLink1 receptors and Enzyme Acceptor fused ARRB2 from DiscoverX (Eurofins). […] Cell vials were thawed and added at equal volume in respective assay medium as previously stated. Recruitment of ARRB2 to activated receptors occurred at 37°C for 90 minutes, followed by cell lysis by the addition of 10 μL detection mixture containing β-galactosidase 93-0001 substrate to quantitate functional enzyme fragment complementation. Chemiluminescent signal was developed for 60 minutes at room temperature and quantified using an EnVision plate reader. Raw data were normalized to percent activation compared with control wells, and the curves were fit to the 4-parameter logistic model in Genedata Screener. As an alternative approach to measure β-arrestin recruitment, bioluminescent resonance energy transfer (BRET) was performed. […] Freestyle HEK cells (R79007, Thermo Fisher Scientific) were transfected in antibiotic-free media using Fugene-6 complexed in optiMEM (Thermo Fisher Scientific). […] Emission was measured at 460 nm (donor) and 610 nm (acceptor) wavelengths. The BRET ratio was calculated as acceptor emission divided by donor emission. […] Agonist-stimulated protein-to-protein interaction of 2 fusion molecules were detected with Nano-Glo substrate and standard luminescent detection. […]
Series [4] concerns the target T3, SNAP-tagged GLP-1R (Homo sapiens, UniProt P43220).
T3 construct: expressed in transfected cells
Nature of the series: Real-time internalization assay, SNAP-tagged receptor. The class given is cell-based. The following applies: HEK293; read-out: internalization of SNAP-tagged GLP-1R, Emax relative to GLP-1.

Series [5] addresses T2, GLP-1R. Nature of the series: On-cell Western internalization assay, HA-GLP-1R-EGFP HEK293. The series is classed as cell-based. On the set-up: expressed in transfected cells. The following applies: HEK293, surface GLP-1R 30 minutes after ligand, normalized to 1 μM GLP-1(7-36); mean (SEM, n); read-out: GLP-1R internalization, maximum effect relative to GLP-1.
Description: For receptor internalization studies, DNA encoding human GIPR and GLP-1R with N-terminal 3X-HA epitope tags and C-terminal EGFP tags was constructed in pcDNA3.1.
HEK293 cells stably expressing HA-GIPR-EFGP or HA–GLP-1R–EFGP clones were plated into poly-D-lysine–coated 96-well microplates and cultured until cells reached 80%–90% confluency. On the day of assay, growth media was removed, and cells were rinsed once with prewarmed starvation media (growth media without serum or antibiotics, supplemented with 0.1% casein) and equilibrated with fresh media for 1 hour at 37°C, 5% CO2. […] Fixative was removed, and cells were washed in PBS and blocked with Odyssey blocking buffer (Licor) for 1 hour.
For series [6] the following is noted: rodents, acute glucose challenge; read-out: in vivo EC50; cited from earlier work. The source says:
(§1) We recognize that calculating pRO values has caveats (see Methods) and propose its use mainly for generating hypotheses and as a tool to probe mechanistic biology. For perspective, though, when examining the pRO values of other ligands, we observe that GLP-1R occupancy is also relatively low (about 10%). Based on established data, this makes sense in terms of the in vivo sensitivity of the GLP-1R system. […] In humans, active GLP-1 and GI ...

Series [7] has as its system GLP-1R. The following applies: read-out: in vitro EC50; cited from earlier work.
Excerpt: as §1

Where two headings read alike, the source gives them in different places.

T2 sequence (P43220 24-463): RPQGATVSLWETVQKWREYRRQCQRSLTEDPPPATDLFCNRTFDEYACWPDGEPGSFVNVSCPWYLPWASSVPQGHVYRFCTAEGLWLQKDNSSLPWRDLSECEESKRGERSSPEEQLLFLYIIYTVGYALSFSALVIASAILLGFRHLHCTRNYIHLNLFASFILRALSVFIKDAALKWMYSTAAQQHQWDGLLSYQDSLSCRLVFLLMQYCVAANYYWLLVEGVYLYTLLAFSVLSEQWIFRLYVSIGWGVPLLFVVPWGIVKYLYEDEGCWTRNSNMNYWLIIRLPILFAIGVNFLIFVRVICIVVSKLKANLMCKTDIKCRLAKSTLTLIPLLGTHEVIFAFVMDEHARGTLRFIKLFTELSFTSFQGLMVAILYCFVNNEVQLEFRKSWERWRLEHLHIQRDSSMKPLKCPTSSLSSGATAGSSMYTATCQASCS
T1 sequence (P02768 25-609): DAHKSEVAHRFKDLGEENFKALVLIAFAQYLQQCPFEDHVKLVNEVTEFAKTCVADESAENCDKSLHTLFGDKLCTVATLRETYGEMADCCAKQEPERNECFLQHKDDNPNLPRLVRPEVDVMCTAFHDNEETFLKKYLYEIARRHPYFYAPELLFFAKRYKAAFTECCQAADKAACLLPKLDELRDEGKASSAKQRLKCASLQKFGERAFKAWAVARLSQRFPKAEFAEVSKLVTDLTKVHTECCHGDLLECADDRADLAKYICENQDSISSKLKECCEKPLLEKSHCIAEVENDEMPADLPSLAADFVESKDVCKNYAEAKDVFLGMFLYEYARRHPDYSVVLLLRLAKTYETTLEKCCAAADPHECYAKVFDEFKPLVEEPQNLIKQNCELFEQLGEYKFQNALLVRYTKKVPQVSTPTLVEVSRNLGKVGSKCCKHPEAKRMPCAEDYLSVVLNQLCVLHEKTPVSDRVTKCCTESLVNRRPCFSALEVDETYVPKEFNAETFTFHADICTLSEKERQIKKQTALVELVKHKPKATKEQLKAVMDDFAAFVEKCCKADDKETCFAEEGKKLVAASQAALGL
T3 sequence (P43220 24-463): as the sequence (P43220 24-463) above

Turning to `CC[C@H](C)[C@H](NC(=O)[C@H](Cc1ccccc1)NC(=O)[C@H](CCC(=O)O)NC(=O)[C@H](CCCCNC(=O)COCCOCCNC(=O)COCCOCCNC(=O)CC[C@H](NC(=O)CCCCCCCCCCCCCCCCC(=O)O)C(=O)O)NC(=O)[C@H](C)NC(=O)[C@H](C)NC(=O)[C@H](CCC(N)=O)NC(=O)CNC(=O)[C@H](CCC(=O)O)NC(=O)[C@H](CC(C)C)NC(=O)[C@H](Cc1ccc(O)cc1)NC(=O)[C@H](CO)NC(=O)[C@H](CO)NC(=O)[C@@H](NC(=O)[C@H](CC(=O)O)NC(=O)[C@H](CO)NC(=O)[C@@H](NC(=O)[C@H](Cc1ccccc1)NC(=O)[C@@H](NC(=O)CNC(=O)[C@H](CCC(=O)O)NC(=O)C(C)(C)NC(=O)[C@@H](N)Cc1cnc[nH]1)[C@@H](C)O)[C@@H](C)O)C(C)C)C(=O)N[C@@H](C)C(=O)N[C@@H](Cc1c[nH]c2ccccc12)C(=O)N[C@@H](CC(C)C)C(=O)N[C@H](C(=O)N[C@@H](CCCNC(=N)N)C(=O)NCC(=O)N[C@@H](CCCNC(=N)N)C(=O)NCC(=O)O)C(C)C` [Semaglutide, semaglutide], the predicted unbound fraction in series [1] is 0.00072. For the same compound, the “Css (total)” value in series [2] (semaglutide 0.5 mg clinical dose) was 0.015 µM; in series [2] (semaglutide 1 mg clinical dose) it was 0.03 µM.

On to `CC[C@H](C)[C@H](NC(=O)[C@H](CC(C)C)NC(=O)[C@H](Cc1c[nH]c2ccccc12)NC(=O)[C@H](CCC(N)=O)NC(=O)[C@@H](NC(=O)[C@H](Cc1ccccc1)NC(=O)[C@H](C)NC(=O)[C@H](CCCCNC(=O)COCCOCCNC(=O)COCCOCCNC(=O)CC[C@H](NC(=O)CCCCCCCCCCCCCCCCCCC(=O)O)C(=O)O)NC(=O)[C@H](CCC(N)=O)NC(=O)[C@H](C)NC(=O)[C@@H](NC(=O)[C@H](CCCCN)NC(=O)[C@H](CC(=O)O)NC(=O)[C@H](CC(C)C)NC(=O)C(C)(C)NC(=O)[C@@H](NC(=O)[C@H](CO)NC(=O)[C@H](Cc1ccc(O)cc1)NC(=O)[C@H](CC(=O)O)NC(=O)[C@H](CO)NC(=O)[C@@H](NC(=O)[C@H](Cc1ccccc1)NC(=O)[C@@H](NC(=O)CNC(=O)[C@H](CCC(=O)O)NC(=O)C(C)(C)NC(=O)[C@@H](N)Cc1ccc(O)cc1)[C@@H](C)O)[C@@H](C)O)[C@@H](C)CC)[C@@H](C)CC)C(C)C)C(=O)N[C@@H](C)C(=O)NCC(=O)NCC(=O)N1CCC[C@H]1C(=O)N[C@@H](CO)C(=O)N[C@@H](CO)C(=O)NCC(=O)N[C@@H](C)C(=O)N1CCC[C@H]1C(=O)N1CCC[C@H]1C(=O)N1CCC[C@H]1C(=O)N[C@@H](CO)C(N)=O` [Tirzepatide], for which the Emax in series [3] was less than 10%; in series [4], less than 40%; in series [5], 40%.

For exendin-4, the EC50 in series [6] is 0.04 nM; in series [7] it was 0.26 nM.

These data come from article PMC7526454 (JCI Insight, 2020).
